Source: BindingDB's records for doi:10.1016/j.bmc.2006.09.058 (Purdue University, 2007)

Target: Sodium-dependent serotonin transporter (Homo sapiens, UniProt P31645, W103C)
Test: Decrease in [3H]5-HT uptake at human SERT W103C mutant transfected in HEK293 cells

Sodium-dependent serotonin transporter, sequence (P31645 whole entry W103C): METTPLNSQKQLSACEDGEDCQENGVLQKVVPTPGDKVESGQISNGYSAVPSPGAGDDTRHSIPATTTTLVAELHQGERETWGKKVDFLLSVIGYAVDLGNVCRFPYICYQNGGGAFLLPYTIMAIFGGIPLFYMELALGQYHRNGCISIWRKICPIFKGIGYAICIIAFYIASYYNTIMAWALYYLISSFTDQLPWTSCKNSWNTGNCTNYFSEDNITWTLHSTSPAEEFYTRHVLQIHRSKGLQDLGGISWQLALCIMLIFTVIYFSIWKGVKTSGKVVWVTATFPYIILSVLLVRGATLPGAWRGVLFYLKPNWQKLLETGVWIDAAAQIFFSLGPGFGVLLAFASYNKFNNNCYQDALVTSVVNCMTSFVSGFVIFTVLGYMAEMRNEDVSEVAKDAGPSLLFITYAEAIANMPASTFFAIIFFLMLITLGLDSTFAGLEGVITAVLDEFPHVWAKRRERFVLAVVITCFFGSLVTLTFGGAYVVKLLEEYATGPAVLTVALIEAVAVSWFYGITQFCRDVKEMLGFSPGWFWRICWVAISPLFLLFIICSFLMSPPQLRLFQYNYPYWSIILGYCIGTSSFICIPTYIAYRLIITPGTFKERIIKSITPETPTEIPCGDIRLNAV

Structure (SMILES)	EC50 [µM]
C[n+]1ccc(-c2ccc(SS(C)(=O)=O)cc2)cc1	31.6
C[N+](C)(C)CCSS(C)(=O)=O	501
